Patent EP0388528B1, “Carboximidamide derivatives” (KIRIN BEER KABUSHIKI KAISHA, priority 1988, dated 1990)

Legend:
beagles [1] = experiment: Hemodynamic profile in beagles (intravenously); format: in vivo; conditions: peak percent change from pretreatment
Description: Hemodynamic profile of the compound of the present invention was investigated in beagles anesthetized with pentobarbital (30 mg/kg, intravenously) [test compound: N-cyano-N′-(2-nitroxyethyl)-3-pyridinecarboximidamide (compound (13))]. The thorax was opened under artificial respiration. After administering heparin in an amount of 500 units/kg, a Moravitz's cannula was introduced into the coronary sinus via the right atrium. The coronary sinus outflow was returned to the right external jagular vein. The coronary sinus outflow was measured by an electromagnetic flowmeter (MFU-2100, manufactured by Nihon Kohden) connected to the Moravitz's cannula. A cannula was inserted into the aortic arch through the subclavian artery to measure aortic blood pressure. The aortic blood pressure was measured with a pressure transducer (Nihon Kohden, TP-200T). Heart rate was monitored with a heart rate counter with R waves of electrocardiogram. All parameters were recorded on a thermosensitive recorder (WT-685G, manufactured by Nihon Kohden).
The compound was administered through the cannula inserted into the right femoral vein. Nicorandil was used as a control. As for respective measurement items, peak changes were expressed as percent change from the pretreatment values of the compound (13) or nicorandil.

beagles [2] = experiment: Hemodynamic profile in beagles (intraduodenally); format: in vivo; conditions: intraduodenal 100 µg/kg, percent change from pretreatment; for Total Peripheral Resistance: mean aortic blood pressure / (coronary + aortic blood flow)
Description: The aortic blood pressure, the heart rate and the coronary blood flow of the beagles anesthetized with pentobarbital were determined in the same manner as in the aforementioned Example 1)-7, and the aortic blood flow was measured with an electromagnetic flowmeter (MFV-3100, manufactured by Nihon Kohden) by attaching a probe at the origin of the aorta [test compound: N-cyano-N′-(2-nitroxyethyl)-3-pyridinecarboximidamide (compound (13))]. A nelaton's tube was inserted into the duodenum via a small abdominal incision for administration of the compound (13) (100 µg/kg). Time course changes in respective measurement items were expressed as percent changes from the pretreatment values. Total peripheral resistance was calculated by dividing the mean aortic blood pressure with the sum of the coronary blood flow and the aortic blood flow.

isolated rat heart = experiment: Effect on isolated rat heart (Langendorff's method); conditions: 1 × 10⁻⁸ mol/min, mean ± S.D.
Description: The effect of the compound of the present invention on heart of rats was examined by using the Langendorff's method [test compound: N-cyano-N′-(2-nitroxyethyl)-3-pyridinecarboximidamide (compound (13))]. Hearts were excised from male rats (weighing 250-350 g) and perfused at 80 cmH₂O in a Langendorff fashion. Krebs-Hensaleit bicarbonate solution (pH 7.4, 37°C) containing an 11 mM glucose which was oxygenated with 95% O₂- 5% CO₂ gas mixture was used as a perfusate. The left ventricular pressure was recorded by inserting a latex baloon into the left ventricle, and heart rate was determined from the pulse of it. Coronary perfusate flow was also measured with an electromagnetic flowmeter. The experiments were carried out by perfusing a perfusate containing the compound (13) for 10 minutes after an initial equilibration period for 30 minutes. As the control compound, nicorandil which has an effect opening potassium channel and is similar to the test compound in structure was used. The changes in the coronary perfusate flow and the cardiac function (heart rate × left ventricular pressure) caused by these compounds were expressed as percent changes from the preperfusion values of the compound (13) or nicorandil.

[3] = test system: spontaneous hypertensive rats (SHR); experiment: Hypotensive effect on spontaneous hypertensive rats (orally); format: in vivo; conditions: systolic pressure 2 hours after administration
Description: Systolic pressure of the rats fasted for 24 hour was measured by using the tail cuff method before and 2 hours after administration of the compound. The compound was dissolved in a mixed solvent of polyethylene glycol 200 : physiological saline = 1:1. The control group was administered the solvent alone. The change in blood pressure was expressed as percent of the blood pressure before the administration of the compound in respective groups.

[4] = Acute toxicity (oral administration); conditions: mouse, in vivo, male ddY mice, read-out: LD₅₀
Description: Using male ddY mice (4 week old), acute toxicity on the oral administration of the compound of the present invention was examined [test compound: N-cyano-N′-(2-nitroxyethyl)-3-pyridinecarboximidamide (compound (13))]. As a result, LD₅₀ was about 400 mg/kg.

SMILES: N#CNC(=NCCO[N+](=O)[O-])c1cccnc1 [Compound (13), N-cyano-N'-(2-nitroxyethyl)-3-pyridinecarboximidamide]
- Coronary Blood Flow (beagles [1]; i.v. 3.0 µg/kg): 16.4±1.8%
- Heart Rate (beagles [1]; i.v. 3.0 µg/kg): 1.3±1.4%
- Mean Aortic Blood Pressure (beagles [1]; i.v. 3.0 µg/kg): -15.3±2.5%
- Coronary Blood Flow (beagles [1]; i.v. 10.0 µg/kg): 96.0±17.6%
- Heart Rate (beagles [1]; i.v. 10.0 µg/kg): -5.9±2.8%
- Mean Aortic Blood Pressure (beagles [1]; i.v. 10.0 µg/kg): -38.5±3.1%
- Coronary Blood Flow (beagles [1]; i.v. 30.0 µg/kg): 134.1±9.2%
- Heart Rate (beagles [1]; i.v. 30.0 µg/kg): -16.2±3.3%
- Mean Aortic Blood Pressure (beagles [1]; i.v. 30.0 µg/kg): -50.7±2.1%
- Aortic Blood Flow (beagles [2]; 1 min after dosage): 10.0%
- Coronary Blood Flow (beagles [2]; 1 min after dosage): 1.8± 1.8%
- Heart Rate (beagles [2]; 1 min after dosage): 0%
- Mean Aortic Blood Pressure (beagles [2]; 1 min after dosage): -9.8± 1.0%
- Total Peripheral Resistance (beagles [2]; 1 min after dosage): -17.8%
- Aortic Blood Flow (beagles [2]; 2 min after dosage): 12.2%
- Coronary Blood Flow (beagles [2]; 2 min after dosage): 14.4± 2.1%
- Heart Rate (beagles [2]; 2 min after dosage): 1.6± 1.6%
- Mean Aortic Blood Pressure (beagles [2]; 2 min after dosage): -14.3± 1.3%
- Total Peripheral Resistance (beagles [2]; 2 min after dosage): -24.1%
- Aortic Blood Flow (beagles [2]; 3 min after dosage): 15.1%
- Coronary Blood Flow (beagles [2]; 3 min after dosage): 38.4± 9.1%
- Heart Rate (beagles [2]; 3 min after dosage): 0%
- Mean Aortic Blood Pressure (beagles [2]; 3 min after dosage): -21.2± 1.2%
- Total Peripheral Resistance (beagles [2]; 3 min after dosage): -33.7%
- Aortic Blood Flow (beagles [2]; 5 min after dosage): 27.0%
- Coronary Blood Flow (beagles [2]; 5 min after dosage): 121.5± 22.0%
- Heart Rate (beagles [2]; 5 min after dosage): -12.1± 5.1%
- Mean Aortic Blood Pressure (beagles [2]; 5 min after dosage): -35.0± 2.0%
- Total Peripheral Resistance (beagles [2]; 5 min after dosage): -49.5%
- Aortic Blood Flow (beagles [2]; 7.5 min after dosage): 25.5%
- Coronary Blood Flow (beagles [2]; 7.5 min after dosage): 142.3± 6.5%
- Heart Rate (beagles [2]; 7.5 min after dosage): -17.5± 4.1%
- Mean Aortic Blood Pressure (beagles [2]; 7.5 min after dosage): -37.0± 2.9%
- Total Peripheral Resistance (beagles [2]; 7.5 min after dosage): -50.3%
- Aortic Blood Flow (beagles [2]; 10 min after dosage): 15.0%
- Coronary Blood Flow (beagles [2]; 10 min after dosage): 112.8± 10.6%
- Heart Rate (beagles [2]; 10 min after dosage): -21.1± 4.4%
- Mean Aortic Blood Pressure (beagles [2]; 10 min after dosage): -42.0± 2.9%
- Total Peripheral Resistance (beagles [2]; 10 min after dosage): -51.1%
- Aortic Blood Flow (beagles [2]; 20 min after dosage): 10.7%
- Coronary Blood Flow (beagles [2]; 20 min after dosage): 64.2± 15.4%
- Heart Rate (beagles [2]; 20 min after dosage): -26.1± 5.5%
- Mean Aortic Blood Pressure (beagles [2]; 20 min after dosage): -49.4± 3.1%
- Total Peripheral Resistance (beagles [2]; 20 min after dosage): -55.3%
- Aortic Blood Flow (beagles [2]; 30 min after dosage): 8.3%
- Coronary Blood Flow (beagles [2]; 30 min after dosage): 60.1± 15.1%
- Heart Rate (beagles [2]; 30 min after dosage): -26.5± 4.6%
- Mean Aortic Blood Pressure (beagles [2]; 30 min after dosage): -49.0± 3.7%
- Total Peripheral Resistance (beagles [2]; 30 min after dosage): -55.8%
- Aortic Blood Flow (beagles [2]; 60 min after dosage): 0.5%
- Coronary Blood Flow (beagles [2]; 60 min after dosage): 28.0± 11.6%
- Heart Rate (beagles [2]; 60 min after dosage): -10.0± 1.4%
- Mean Aortic Blood Pressure (beagles [2]; 60 min after dosage): -36.5± 7.3%
- Total Peripheral Resistance (beagles [2]; 60 min after dosage): -44.3%
- Coronary Perfusate Flow (% change) (isolated rat heart; perfusion 10 minutes): 51.3±3.2 % change
- Cardiac Function (isolated rat heart; heart rate × left ventricular pressure, percent change from preperfusion): 13.3±6.5%
- Decreasing Rate of Blood Pressure (%) ([3]; 0.3 mg/kg p.o.): 6.76 ± 1.53%
- Decreasing Rate of Blood Pressure (%) ([3]; 0.5 mg/kg p.o.): 9.12 ± 2.41%
- Decreasing Rate of Blood Pressure (%) ([3]; 1.0 mg/kg p.o.): 27.31 ± 2.32%
- Decreasing Rate of Blood Pressure (%) ([3]; 3.0 mg/kg p.o.): 49.99 ± 2.48%
- LD50 [4]: ~400 mg/kg
